# pEC50: −log10 of the molar value.
# Target: T1, GLP-1R (Homo sapiens, UniProt P43220)
# T1 construct: host or cells: CHO cells
# Assay: GLP-1R activation cAMP assay (Assay 1 or Assay 2)
# Assay type: cell-based
# Conditions: cAMP increase in CHO cells stably expressing GLP-1R; compounds run on one of the two cAMP assays
# Method in brief: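 CHO cells stably expressing human GLP-1R were incubated 1 h in HBSS/20 mM HEPES/0.1% BSA, then exposed to 10-point agonist dilutions for 30 min at 37 °C. cAMP increase was measured with an HTRF Gs dynamic kit; EC50 from sigmoidal fit of response versus log concentration.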
# T1 sequence (P43220 24-463): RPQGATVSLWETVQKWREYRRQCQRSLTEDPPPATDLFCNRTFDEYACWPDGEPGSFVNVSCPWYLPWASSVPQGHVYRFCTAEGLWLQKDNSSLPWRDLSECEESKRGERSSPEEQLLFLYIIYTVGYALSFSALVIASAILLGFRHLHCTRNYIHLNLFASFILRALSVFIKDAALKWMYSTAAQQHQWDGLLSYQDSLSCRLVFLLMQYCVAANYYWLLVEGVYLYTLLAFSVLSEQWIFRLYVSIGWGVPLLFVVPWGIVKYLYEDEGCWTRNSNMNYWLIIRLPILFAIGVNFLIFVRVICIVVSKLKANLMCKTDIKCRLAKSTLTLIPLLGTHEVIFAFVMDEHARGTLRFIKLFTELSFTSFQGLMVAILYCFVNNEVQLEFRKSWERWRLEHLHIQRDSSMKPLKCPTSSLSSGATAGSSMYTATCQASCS
row,Compound,pEC50
1,"NC(=O)c1csc(COc2cccc(-c3cc(F)c(Cc4nc5ccc(C(=O)O)cc5n4C[C@@H]4CCO4)cc3F)n2)c1 [Example 131, (S)-2-(4-(6-((4-carbamoylthiophen-2-yl)methoxy)pyridin-2-yl)-2,5-difluorobenzyl)-1-(oxetan-2-ylmethyl)-1H-benzo[d]imidazole-6-carboxylic acid]",8.47
2,"Cn1cc(C#Cc2ccc(COc3cccc(-c4cc(F)c(Cc5nc6ccc(C(=O)O)cc6n5C[C@@H]5CCO5)cc4F)n3)c(F)c2)cn1 [Example 132, (S)-2-(2,5-difluoro-4-(6-((2-fluoro-4-((1-methyl-1H-pyrazol-4-yl)ethynyl)benzyl)oxy)pyridin-2-yl)benzyl)-1-(oxetan-2-ylmethyl)-1H-benzo[d]imidazole-6-carboxylic acid]",9.77
3,"CC1(C#Cc2ccc(COc3cccc(-c4cc(F)c(Cc5nc6ccc(C(=O)O)cc6n5C[C@@H]5CCO5)cc4F)n3)c(F)c2)COC1 [Example 133, (S)-2-(2,5-difluoro-4-(6-((2-fluoro-4-((3-methyloxetan-3-yl)ethynyl)benzyl)oxy)pyridin-2-yl)benzyl)-1-(oxetan-2-ylmethyl)-1H-benzo[d]imidazole-6-carboxylic acid]",9.52
4,"Cn1ccc(C#Cc2ccc(COc3cccc(-c4cc(F)c(Cc5nc6ccc(C(=O)O)cc6n5C[C@@H]5CCO5)cc4F)n3)c(F)c2)n1 [Example 134, (S)-2-(2,5-difluoro-4-(6-((2-fluoro-4-((1-methyl-1H-pyrazol-3-yl)ethynyl)benzyl)oxy)pyridin-2-yl)benzyl)-1-(oxetan-2-ylmethyl)-1H-benzo[d]imidazole-6-carboxylic acid]",9.22
5,"Cn1nccc1C#Cc1ccc(COc2cccc(-c3cc(F)c(Cc4nc5ccc(C(=O)O)cc5n4C[C@@H]4CCO4)cc3F)n2)c(F)c1 [Example 135, (S)-2-(2,5-difluoro-4-(6-((2-fluoro-4-((1-methyl-1H-pyrazol-5-yl)ethynyl)benzyl)oxy)pyridin-2-yl)benzyl)-1-(oxetan-2-ylmethyl)-1H-benzo[d]imidazole-6-carboxylic acid]",9.47
6,"Cc1ncc(C#Cc2ccc(COc3cccc(-c4cc(F)c(Cc5nc6ccc(C(=O)O)cc6n5C[C@@H]5CCO5)cc4F)n3)c(F)c2)o1 [Example 136, (S)-2-(2,5-difluoro-4-(6-((2-fluoro-4-((2-methyloxazol-5-yl)ethynyl)benzyl)oxy)pyridin-2-yl)benzyl)-1-(oxetan-2-ylmethyl)-1H-benzo[d]imidazole-6-carboxylic acid]",9.60
7,"O=C(O)c1ccc2nc(Cc3cc(F)c(-c4cccc(OCc5ccc(C#Cc6cncs6)cc5F)n4)cc3F)n(C[C@@H]3CCO3)c2c1 [Example 137, (S)-2-(2,5-difluoro-4-(6-((2-fluoro-4-(thiazol-5-ylethynyl)benzyl)oxy)pyridin-2-yl)benzyl)-1-(oxetan-2-ylmethyl)-1H-benzo[d]imidazole-6-carboxylic acid]",9.62
8,"O=C(O)c1ccc2nc(Cc3cc(F)c(-c4cccc(OCc5ccc(C#Cc6cncnc6)cc5F)n4)cc3F)n(C[C@@H]3CCO3)c2c1 [Example 138, (S)-2-(2,5-difluoro-4-(6-((2-fluoro-4-(pyrimidin-5-ylethynyl)benzyl)oxy)pyridin-2-yl)benzyl)-1-(oxetan-2-ylmethyl)-1H-benzo[d]imidazole-6-carboxylic acid]",9.55
9,"O=C(O)c1ccc2nc(Cc3cc(F)c(-c4cccc(OCc5ccc(C#Cc6cccnc6)cc5F)n4)cc3F)n(C[C@@H]3CCO3)c2c1 [Example 139, (S)-2-(2,5-difluoro-4-(6-((2-fluoro-4-(pyridin-3-ylethynyl)benzyl)oxy)pyridin-2-yl)benzyl)-1-(oxetan-2-ylmethyl)-1H-benzo[d]imidazole-6-carboxylic acid]",9.55
10,"O=C(O)c1ccc2nc(Cc3cc(F)c(-c4cccc(OCc5ccc(C#Cc6ccncc6)cc5F)n4)cc3F)n(C[C@@H]3CCO3)c2c1 [Example 140, (S)-2-(2,5-difluoro-4-(6-((2-fluoro-4-(pyridin-4-ylethynyl)benzyl)oxy)pyridin-2-yl)benzyl)-1-(oxetan-2-ylmethyl)-1H-benzo[d]imidazole-6-carboxylic acid]",9.40
11,"O=C(O)c1ccc2nc(Cc3cc(F)c(-c4cccc(OCc5ccc(C#Cc6nccs6)cc5F)n4)cc3F)n(C[C@@H]3CCO3)c2c1 [Example 141, (S)-2-(2,5-difluoro-4-(6-((2-fluoro-4-(thiazol-2-ylethynyl)benzyl)oxy)pyridin-2-yl)benzyl)-1-(oxetan-2-ylmethyl)-1H-benzo[d]imidazole-6-carboxylic acid]",9.48
12,"Cn1cncc1C#Cc1ccc(COc2cccc(-c3cc(F)c(Cc4nc5ccc(C(=O)O)cc5n4C[C@@H]4CCO4)cc3F)n2)c(F)c1 [Example 142, (S)-2-(2,5-difluoro-4-(6-((2-fluoro-4-((1-methyl-1H-imidazol-5-yl)ethynyl)benzyl)oxy)pyridin-2-yl)benzyl)-1-(oxetan-2-ylmethyl)-1H-benzo[d]imidazole-6-carboxylic acid]",9.60
13,"Cn1cc(C#Cc2cnc(COc3cccc(-c4cc(F)c(Cc5nc6ccc(C(=O)O)cc6n5C[C@@H]5CCO5)cc4F)n3)c(F)c2)cn1 [Example 143, (S)-2-(2,5-difluoro-4-(6-((3-fluoro-5-((1-methyl-1H-pyrazol-4-yl)ethynyl)pyridin-2-yl)methoxy)pyridin-2-yl)benzyl)-1-(oxetan-2-ylmethyl)-1H-benzo[d]imidazole-6-carboxylic acid]",9.85
14,"Cn1cc(C#Cc2cc(F)c(COc3cccc(-c4cc(F)c(Cc5nc6ccc(C(=O)O)cc6n5C[C@@H]5CCO5)cc4F)n3)cn2)cn1 [Example 144, (S)-2-(2,5-difluoro-4-(6-((4-fluoro-6-((1-methyl-1H-pyrazol-4-yl)ethynyl)pyridin-3-yl)methoxy)pyridin-2-yl)benzyl)-1-(oxetan-2-ylmethyl)-1H-benzo[d]imidazole-6-carboxylic acid]",9.00
15,"COc1cc(C#Cc2cnn(C)c2)ncc1COc1cccc(-c2cc(F)c(Cc3nc4ccc(C(=O)O)cc4n3C[C@@H]3CCO3)cc2F)n1 [Example 145, (S)-2-(2,5-difluoro-4-(6-((4-methoxy-6-((1-methyl-1H-pyrazol-4-yl)ethynyl)pyridin-3-yl)methoxy)pyridin-2-yl)benzyl)-1-(oxetan-2-ylmethyl)-1H-benzo[d]imidazole-6-carboxylic acid]",9.60
16,"Cc1ncc(C#Cc2ccc(COc3cccc(-c4cc(F)c(Cc5nc6ccc(C(=O)O)cc6n5C[C@@H]5CCO5)cc4F)n3)c(F)c2)cn1 [Example 146, (S)-2-(2,5-difluoro-4-(6-((2-fluoro-4-((2-methylpyrimidin-5-yl)ethynyl)benzyl)oxy)pyridin-2-yl)benzyl)-1-(oxetan-2-ylmethyl)-1H-benzo[d]imidazole-6-carboxylic acid]",10.05
17,"Cn1cc(C#Cc2ccc(COc3cccc(-c4cc(F)c(Cc5nc6ccc(C(=O)O)cc6n5C[C@@H]5CCO5)cc4F)n3)cn2)cn1 [Example 147, (S)-2-(2,5-difluoro-4-(6-((6-((1-methyl-1H-pyrazol-4-yl)ethynyl)pyridin-3-yl)methoxy)pyridin-2-yl)benzyl)-1-(oxetan-2-ylmethyl)-1H-benzo[d]imidazole-6-carboxylic acid]",9.22
18,"Cn1ccnc1C#Cc1ccc(COc2cccc(-c3cc(F)c(Cc4nc5ccc(C(=O)O)cc5n4C[C@@H]4CCO4)cc3F)n2)c(F)c1 [Example 148, (S)-2-(2,5-difluoro-4-(6-((2-fluoro-4-((1-methyl-1H-imidazol-2-yl)ethynyl)benzyl)oxy)pyridin-2-yl)benzyl)-1-(oxetan-2-ylmethyl)-1H-benzo[d]imidazole-6-carboxylic acid]",9.29
19,"Cc1ncc(C#Cc2ccc(COc3cccc(-c4cc(F)c(Cc5nc6ccc(C(=O)O)cc6n5C[C@@H]5CCO5)cc4F)n3)c(F)c2)n1C [Example 149, (S)-2-(4-(6-((4-((1,2-dimethyl-1H-imidazol-5-yl)ethynyl)-2-fluorobenzyl)oxy)pyridin-2-yl)-2,5-difluorobenzyl)-1-(oxetan-2-ylmethyl)-1H-benzo[d]imidazole-6-carboxylic acid]",9.54
20,"COCCn1c(Cc2ccc(-c3cccc(OCc4ccc(C#Cc5cnc(N6CC7CCC(C6)N7C6COC6)nc5)cc4F)n3)cc2F)nc2ccc(C(=O)O)cc21 [Example 150, 2-(2-fluoro-4-(6-((2-fluoro-4-((2-(8-(oxetan-3-yl)-3,8-diazabicyclo[3.2.1]octan-3-yl)pyrimidin-5-yl)ethynyl)benzyl)oxy)pyridin-2-yl)benzyl)-1-(2-methoxyethyl)-1H-benzo[d]imidazole-6-carboxylic acid]",8.00
21,"Cn1cc(C#Cc2ccc(COc3cccc(-c4cc(F)c(Cc5nc6c(F)cc(C(=O)O)cc6n5C[C@@H]5CCO5)cc4F)n3)c(F)c2)cn1 [Example 151, (S)-2-(2,5-difluoro-4-(6-((2-fluoro-4-((1-methyl-1H-pyrazol-4-yl)ethynyl)benzyl)oxy)pyridin-2-yl)benzyl)-4-fluoro-1-(oxetan-2-ylmethyl)-1H-benzo[d]imidazole-6-carboxylic acid]",10.00
22,"O=C(O)c1cc(F)c2nc(Cc3cc(F)c(-c4cccc(OCc5ccc(C#Cc6cnc(N7CC8CCC(C7)N8C7COC7)nc6)cc5F)n4)cc3F)n(C[C@@H]3CCO3)c2c1 [Example 152, 2-(2,5-difluoro-4-(6-((2-fluoro-4-((2-(8-(oxetan-3-yl)-3,8-diazabicyclo[3.2.1]octan-3-yl)pyrimidin-5-yl)ethynyl)benzyl)oxy)pyridin-2-yl)benzyl)-4-fluoro-1-(((S)-oxetan-2-yl)methyl)-1H-benzo[d]imidazole-6-carboxylic acid]",9.17
23,"Cc1cc(Cc2nc3c(F)cc(C(=O)O)cc3n2C[C@@H]2CCO2)c(F)cc1-c1cccc(OCc2ccc(C#Cc3cnn(C)c3)cc2F)n1 [Example 153, (S)-4-fluoro-2-(2-fluoro-4-(6-((2-fluoro-4-((1-methyl-1H-pyrazol-4-yl)ethynyl)benzyl)oxy)pyridin-2-yl)-5-methylbenzyl)-1-(oxetan-2-ylmethyl)-1H-benzo[d]imidazole-6-carboxylic acid]",9.44

# Source: patent US20250312352A1, “GLP-1R MODULATING COMPOUNDS” (Gilead Sciences, Inc., priority 2021, published 2025)
